Entries after “also recorded” stand apart in the source; their conditions may differ.
Assay: Degradation of the ions in the concomitant presence of LP (NMR signal at 49 ppm)
Format: physicochemical
Conditions: for signal at 49 ppm / wanted ions in concomitant presence of LP: after 48 h
Description: During the production of the wanted ions, if one keeps the enzyme in the mixture, one observes a gradual loss of the wanted ions, and, after 48 h, a total loss of the wanted ions due to enzymatic oxidation of the wanted ions, as illustrated in FIG. 19 in which one observes a decrease in the intensity of the signal as a function of the time of presence of the enzyme in the matrix (solution).

I2SCN^− and/or I(SCN)2^− ions
signal at 49 ppm in concomitant presence of LP (3 h of incubation): pronounced decrease of the signal
signal at 49 ppm in concomitant presence of LP (after 1 h): slight decrease
signal at 49 ppm / wanted ions in concomitant presence of LP: total disappearance of the signal; also recorded: complete disappearance
signal at 49 ppm / wanted ions in concomitant presence of LP (listed as wanted ions): total loss

From patent US20200361779A1, “COMPOSITION INCLUDING I2SCN- IONS AND/OR I(SCN)2- IONS” (priority 2015, published 2020)
